pIC50: −log10 of the molar value. Counter-ions that a name gives are not always drawn. Like-named read-outs stand apart in the source and are kept apart here.

In patent US8309721B2, “HSP90 inhibitory carbazole derivatives, compositions containing same and use thereof” (Sanofi, priority 2008, dated 2012) one finds IC50 and melting point data, which are given here for 23 compounds.

In data set [1] the test system is Her2 receptor expression at the surface of SKBr3 cells. Put plainly: phenotypic SKBr3/HER2 cell test (Her2 surface expression by flow cytometry). The data set is classed as cell-based. The settings on record: Homo sapiens, SK-BR-3, 24 h incubation, inhibition of Her2 expression. An outline of the steps: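 SKBr3 cells (Her2-overexpressing adenocarcinoma) treated 24 h with compound at varying concentrations, then stained with PE-anti-Her2 antibody 30 min at 4° C; surface Her2 measured by flow cytometry. IC50 from nonlinear fit of % inhibition of Her2 expression versus concentration.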

Another data set addresses Hsp82 (Saccharomyces cerevisiae, UniProt P02829). Put plainly: Hsp82/ATPase test (malachite green or PK/LDH coupled method). The data set is classed as biochemical. The procedure:
The biochemical activity of the compounds can in particular be evaluated by means of the “Hsp82/ATPase” test described below: The inorganic phosphate released during the hydrolysis of ATP by the ATPase activity of Hsp82 is quantified by the malachite green method. In the presence of this reagent, formation of the inorganic phosphate-molybdate-malachite green complex, which absorbs at a wavelength of 620 nm, occurs. The products to be evaluated are incubated in a reaction volume of 30 μl, in the presence of 1 μM Hsp82 and of 250 μM of substrate (ATP) in a buffer composed of 50 mM Hepes-NaOH (pH 7.5), 1 mM DTT, 5 mM MgCl2 and 50 mM KCl at 37° C. for 60 min. In parallel, an inorganic phosphate range of between 1 and 40 μM is made up in the same buffer. […] After incubation at ambient temperature for 20 min, the absorbance of the various wells is measured using a microplate reader at 620 nm. The inorganic phosphate concentration of each sample is then calculated from the standard curve. The ATPase activity of Hsp82 is expressed as concentration of inorganic phosphate produced in 60 minutes. The effect of the various products tested is expressed as percentage inhibition of the ATPase activity. The formation of ADP due to the ATPase activity of Hsp82 was used to develop another method for evaluating the enzyme activity of this enzyme by application of an enzymatic coupling system involving pyruvate kinase (PK) and lactate dehydrogenase (LDH). In this kinetic-type spectrophotometric method, PK catalyses the formation of ATP and of pyruvate from phosphoenol pyruvate (PEP) and the ADP produced by Hsp82. The pyruvate formed, which is a substrate for LDH, is subsequently converted to lactate in the presence of NADH. In this case, the decrease in the NADH concentration, measured through the decrease in absorbance at the wavelength of 340 nm, is proportional to the concentration of ADP produced by Hsp82. The products tested are incubated in a reaction volume of 100 μl of buffer composed of 100 mM Hepes-NaOH (pH 7.5), 5 mM MgCl2, 1 mM DTT, 150 mM KCl, 0.3 mM NADH, 2.5 mM PEP and 250 μM ATP. This mixture is preincubated at 37° C. for 30 minutes before the addition of 3.77 units of LDH and 3.77 units of PK. The reaction is initiated by addition of the product to be evaluated, in varying concentrations, and of Hsp82, at the concentration of 1 μM. The enzymatic activity of Hsp82 is then measured continuously, in a microplate reader, at 37° C., at the wavelength of 340 nm. The initial rate of the reaction is obtained by measuring the slope of the tangent to the origin of the curve recorded. The enzymatic activity is expressed in μM of ADP formed per minute. The effect of the various products tested is expressed as percentage inhibition of the ATPase activity according to the codification below: […]

[2] abbreviates: 1 μM Hsp82, 250 μM ATP, 37° C., read-out: Hsp82 ATPase IC50.

Sequence of Hsp82 (P02829 whole entry): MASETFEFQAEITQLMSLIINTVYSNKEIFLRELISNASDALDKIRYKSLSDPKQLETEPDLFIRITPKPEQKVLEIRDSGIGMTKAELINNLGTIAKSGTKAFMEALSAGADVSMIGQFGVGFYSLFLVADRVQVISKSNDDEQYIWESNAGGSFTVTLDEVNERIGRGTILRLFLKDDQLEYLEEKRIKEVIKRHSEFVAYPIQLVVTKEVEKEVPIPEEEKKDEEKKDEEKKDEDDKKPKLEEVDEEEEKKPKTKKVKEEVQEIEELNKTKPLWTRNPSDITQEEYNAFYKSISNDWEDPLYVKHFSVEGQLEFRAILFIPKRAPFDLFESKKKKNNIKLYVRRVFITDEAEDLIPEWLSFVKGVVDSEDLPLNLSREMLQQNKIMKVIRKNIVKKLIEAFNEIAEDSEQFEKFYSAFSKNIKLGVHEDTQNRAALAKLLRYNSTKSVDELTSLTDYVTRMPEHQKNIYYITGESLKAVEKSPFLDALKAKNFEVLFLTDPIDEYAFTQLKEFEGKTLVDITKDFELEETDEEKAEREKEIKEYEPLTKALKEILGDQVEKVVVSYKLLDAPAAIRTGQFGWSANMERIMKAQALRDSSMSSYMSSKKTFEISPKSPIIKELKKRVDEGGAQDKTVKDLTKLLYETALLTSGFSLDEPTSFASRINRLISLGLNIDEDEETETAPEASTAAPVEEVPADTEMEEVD

In turn, `COc1cncc(-c2cccc3c2c2ccccc2n3-c2ccc(C(N)=O)c(N[C@H]3CC[C@H](O)CC3)c2)c1` [Example 27, 2-[(4-trans-hydroxycyclohexyl)amino]-4-[4-(5-methoxypyridin-3-yl)-9H-carbazol-9-yl]benzamide] displayed a melting point of 263 °C. This compound also showed a negative-log IC50 (pIC50) in data set [1] greater than 6.00. The negative logarithm of the IC50 (pIC50) at Hsp82 (setting [2]) was greater than 6.00.

On to `CNC(=O)CNc1cc(-n2c3ccccc3c3c(-c4nc5ccc(F)cc5[nH]4)cccc32)ccc1C(N)=O` [Example 44, 4-[4-(6-fluoro-1H-benzimidazol-2-yl)-9H-carbazol-9-yl]-2-(methylcarbamoylmethylamino)benzamide], for which the pIC50 in data set [1] is greater than 6.00; on Hsp82 (setting [2]), 5.00 to 6.00.

As for `NC(=O)c1ccc(-n2c3ccccc3c3c(-c4cnc5ccccc5c4)cccc32)cc1NCC[N+]1([O-])CCCC1` [Example 45, 2-[2-(1-oxypyrrolidin-1-yl)ethylamino]-4-[4-(quinolin-3-yl)-9H-carbazol-9-yl]benzamide], the pIC50 (in data set [1]; on Hsp82 (setting [2])) was greater than 6.00 in each case.

Take `CCOCCNc1cc(-n2c3ccccc3c3c(-c4nc5ccc(F)cc5[nH]4)cccc32)ccc1C(N)=O` [Example 46, 2-(2-ethoxyethylamino)-4-[4-(6-fluoro-1H-benzimidazol-2-yl)-9H-carbazol-9-yl]benzamide]: the pIC50 was greater than 6.00 in data set [1] and 5.00 to 6.00 at Hsp82 (setting [2]).

Turning to `NC(=O)CCNc1cc(-n2c3ccccc3c3c(-c4nc5ccc(F)cc5[nH]4)cccc32)ccc1C(N)=O` [Example 47, 2-(2-carbamoylethylamino)-4-[4-(6-fluoro-1H-benzimidazol-2-yl)-9H-carbazol-9-yl]benzamide], the negative-log IC50 (pIC50) (in data set [1]; on Hsp82 (setting [2])) was greater than 6.00 throughout.

With `NC(=O)c1ccc(-n2c3ccccc3c3c(-c4nc5ccc(F)cc5[nH]4)cccc32)cc1NCc1ccco1` [Example 48, 4-[4-(6-fluoro-1H-benzimidazol-2-yl)-9H-carbazol-9-yl]-2-[(furan-2-ylmethyl)amino]benzamide], the pIC50 in data set [1] is greater than 6.00; on Hsp82 (setting [2]), 5.00 to 6.00.

On to `NC(=O)c1ccc(-n2c3ccccc3c3c(-c4nc5ccc(F)cc5[nH]4)cccc32)cc1NCc1ccoc1` [Example 50, 4-[4-(6-fluoro-1H-benzimidazol-2-yl)-9H-carbazol-9-yl]-2-[(furan-3-ylmethyl)amino]benzamide], for which the negative logarithm of the IC50 (pIC50) was greater than 6.00 in data set [1] and 5.00 to 6.00 on Hsp82 (setting [2]).

For `NC(=O)c1ccc(-n2c3ccccc3c3c(-c4nc5ccc(F)cc5[nH]4)cccc32)cc1NCc1ccn[nH]1` [Example 51, 4-[4-(6-fluoro-1H-benzimidazol-2-yl)-9H-carbazol-9-yl]-2-[(2H-pyrazol-3-ylmethyl)amino]benzamide], the negative logarithm of the IC50 (pIC50) in data set [1] is greater than 6.00; on Hsp82 (setting [2]) it was 5.00 to 6.00.

In the case of `NC(=O)c1ccc(-n2c3ccccc3c3c(-c4nc5ccc(F)cc5[nH]4)cccc32)cc1NC(CO)CO` [Example 52, 4-[4-(6-fluoro-1H-benzimidazol-2-yl)-9H-carbazol-9-yl]-2-(2-hydroxy-1-hydroxymethylethylamino)benzamide], the pIC50 (in data set [1]; at Hsp82 (setting [2])) was greater than 6.00 in each case.

Turning to `NCC(CO)Oc1cc(-n2c3ccccc3c3c(-c4nc5ccc(F)cc5[nH]4)cccc32)ccc1C(N)=O` (centres unmarked) [Example 53, 2-(2-amino-1-hydroxymethylethyloxy)-4-[4-(6-fluoro-1H-benzimidazol-2-yl)-9H-carbazol-9-yl]benzamide], the pIC50 (in data set [1]; at Hsp82 (setting [2])) was 5.00 to 6.00 throughout.

As to `COC[C@H](C)Nc1cc(-n2c3ccccc3c3c(-c4nc5ccc(F)cc5[nH]4)cccc32)ccc1C(N)=O` [Example 54], the pIC50 (in data set [1]; on Hsp82 (setting [2])) was greater than 6.00 in each case.

Regarding `NC(=O)c1ccc(-n2c3ccccc3c3c(-c4cnc(N)nc4)cccc32)cc1N[C@H]1CC[C@H](O)CC1` [Example 55, 4-[4-(2-aminopyrimidin-5-yl)-9H-carbazol-9-yl]-2-[(4-trans-hydroxycyclohexyl)amino]benzamide hydrochloride], the pIC50 (in data set [1]; on Hsp82 (setting [2])) was greater than 6.00 in each case.

On to `NC(=O)c1ccc(-n2c3ccccc3c3c(-c4nc5ccc(F)cc5[nH]4)cccc32)cc1NCc1c[nH]cn1` [Example 57, 4-[4-(6-fluoro-1H-benzimidazol-2-yl)-9H-carbazol-9-yl]-2-[(1H-imidazoly-4-yl)methylamino]benzamide], for which the pIC50 (in data set [1]; on Hsp82 (setting [2])) was 5.00 to 6.00 each time.

For the compound `NC(=O)c1ncc(-n2c3ccccc3c3c(-c4cnc5ccccc5c4)cccc32)cc1N[C@H]1CC[C@H](O)CC1` [Example 58, 3-(4-trans-hydroxycyclohexylamino)-5-[(4-quinolin-3-yl)-9H-carbazol-9-yl]pyridine-2-carboxamide], the pIC50 (in data set [1]; on Hsp82 (setting [2])) was greater than 6.00 throughout.

Take `NC(=O)c1ccc(-n2c3ccccc3c3c(-c4nc5ccc(F)cc5[nH]4)cccc32)cc1NC1CCOCC1` [Example 59, 4-[4-(6-fluoro-1H-benzimidazol-2-yl)-9H-carbazol-9-yl]-2-(tetrahydropyran-4-ylamino)benzamide]: the pIC50 (in data set [1]; on Hsp82 (setting [2])) was greater than 6.00 each time.

In the case of `CC(C)(O)CCNc1cc(-n2c3ccccc3c3c(-c4nc5ccc(F)cc5[nH]4)cccc32)ccc1C(N)=O` [Example 61, 4-[4-(6-fluoro-1H-benzimidazol-2-yl)-9H-carbazol-9-yl]-2-(3-hydroxy-3-methylbutylamino)benzamide], the negative-log IC50 (pIC50) in data set [1] is greater than 6.00; on Hsp82 (setting [2]), 5.00 to 6.00.

For the compound `NC(=O)c1ccc(-n2c3ccccc3c3c(-c4nc5ccc(F)cc5[nH]4)cccc32)cc1NCCF` [Example 62, 4-[4-(6-fluoro-1H-benzimidazol-2-yl)-9H-carbazol-9-yl]-2-(2-fluoroethylamino)benzamide], the pIC50 (in data set [1]; at Hsp82 (setting [2])) was greater than 6.00 each time.

Regarding `NC(=O)c1ccc(-n2c3ccccc3c3c(-c4cnc5ccccc5c4)cccc32)cc1NCCC1(O)CCCC1` [Example 64], the negative-log IC50 (pIC50) (in data set [1]; at Hsp82 (setting [2])) was greater than 6.00 throughout.

On to `CN1CCC(O)(CCNc2cc(-n3c4ccccc4c4c(-c5cnc6ccccc6c5)cccc43)ccc2C(N)=O)CC1` [Example 65, 2-[2-(4-hydroxy-1-methylpiperidin-4-yl)ethylamino]-4-[4-(quinolin-3-yl)-9H-carbazol-9-yl]benzamide], for which the pIC50 (in data set [1]; on Hsp82 (setting [2])) was greater than 6.00 each time.

Take `NC(=O)c1ccc(-n2c3ccccc3c3c(-c4cncc(OCc5ccccc5)c4)cccc32)cc1N[C@H]1CC[C@H](O)CC1` [Example 67, 4-{4-[5-(benzyloxy)pyridin-3-yl]-9H-carbazol-9-yl}-2-[(4-trans-hydroxycyclohexyl)amino]benzamide]: the pIC50 (in data set [1]; at Hsp82 (setting [2])) was 5.00 to 6.00 each time.

Regarding `N#Cc1ccc(-c2cccc3c2c2ccccc2n3-c2ccc(C(N)=O)c(NCCCO)c2)cn1` [Example 112, 4-[4-(6-cyanopyridin-3-yl)-9H-carbazol-9-yl]-2-[(3-hydroxypropyl)amino]benzamide], the melting point was found to be 204 °C. In data set [1], this compound showed a pIC50 greater than 6.00.

The compound `N#Cc1ccc(-c2cccc3c2c2ccccc2n3-c2ccc(C(N)=O)c(NC3CCOCC3)c2)cn1` [Example 126, 4-[4-(6-cyanopyridin-3-yl)-9H-carbazol-9-yl]-2-(tetrahydro-2H-pyran-4-ylamino)benzamide] had a melting point of 256 °C. For the same compound, in data set [1], the negative logarithm of the IC50 (pIC50) was greater than 6.00.

On to `CN1C2CCC1CC(Nc1cc(-n3c4ccccc4c4c(-c5cnc6ccccc6c5)cccc43)ccc1C(N)=O)C2` (centres unmarked) [Example 138, 2-(8-methyl-8-azabicyclo[3.2.1]oct-3-yl)amino-4-[4-(quinolin-3-yl)-9H-carbazol-9-yl]benzamide], for which the pIC50 (in data set [1]; against Hsp82) was greater than 6.00 each time.
